According to patent US7674906B2, “Tetracyclic immunomodulatory compounds” (Active Biotech AB, priority 2002, dated 2010):

The molecules below were run against T1, CD80-CD 28 interaction (Homo sapiens, UniProt P33681) (assay: cell free Homogenous Time Resolved Fluorescence (HTRF) assay, inhibition of the CD80-CD28 interaction). Conditions: CD28-mouse Fc fusion protein and CD80 mouse Fab fragment (C215) fusion protein, 4 hours at room temperature, concentration series 100 μM-1.7 nM.
T1 sequence (P33681 35-242 limits assumed): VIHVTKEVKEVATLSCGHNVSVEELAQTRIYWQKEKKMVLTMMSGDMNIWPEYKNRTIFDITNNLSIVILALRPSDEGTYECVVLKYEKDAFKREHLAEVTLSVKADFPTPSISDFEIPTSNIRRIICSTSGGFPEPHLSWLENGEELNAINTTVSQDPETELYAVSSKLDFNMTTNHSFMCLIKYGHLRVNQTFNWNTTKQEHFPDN
Format: binding
Procedure: The examples described above were tested in a cell free Homogenous Time Resolved Fluorescence (HTRF) assay to determine their activity as inhibitors of the CD80-CD 28 interaction.
In the assay, europium and allophycocyanin (APC) are associated with CD28 and CD80 indirectly (through anti-body linkers) to form a complex, which brings the europium and APC into close proximity to generate a signal. The complex comprises the following six proteins: fluorescent label 1, linker antibody 1, CD28 fusion protein, CD80 fusion protein, linker antibody 2, and fluorescent label 2. The table below describes these reagents in greater detail.
On formation of the complex, europium and APC are brought into proximity and a signal is generated.
Non-specific interaction was measured by substituting a mouse Fab fragment (C215) for the CD80 mouse Fab fragment fusion protein (1.9 μg/ml). The assay was carried out in black 384 well plates in a final volume of 30 μl. Assay buffer: 50 mM Tris-HCl, 150 mM NaCl pH7.8, containing 0.1% BSA (w/v) added just prior to use.
Compounds were added to the above reagents in a concentration series ranging between 100 μM-1.7 nM. The reaction was incubated for 4 hours at room temperature. Dual measurements were made using a Wallac Victor 1420 Multilabel Counter. First measurement: excitation 340 nm, emission 665 nm, delay 50 μs, window time 200 μs. second measurement: excitation 340 nm, emission 615 nm, delay 50 μs, window time 200 μs. Counts were automatically corrected for fluorescence crossover, quenching and background.

Row | IC50 | Structure (SMILES)
1 | 8.6 µM | O=C(O)c1ccc(-n2nc3c4ccccc4[nH]c(-c4cccc([N+](=O)[O-])c4)c-3c2=O)cc1 [Example 5, 4-[4-(3-Nitro-phenyl)-3-oxo-3,5-dihydro-pyrazolo[4,3-c]-quinolin-2-yl]-benzoic acid]
2 | 3.4 µM | COc1ccc(-c2[nH]c3ccccc3c3nn(-c4ccc(C(=O)O)cc4)c(=O)c2-3)cc1 [Example 7, 4-[4-(4-Methoxyphenyl)-3-oxo-3,5-dihydropyrazolo[4,3-c]-quinolin-2-yl]benzoic acid]
3 | 4.6 µM | COc1ccc(-c2[nH]c3ccccc3c3nn(-c4cccc(C(=O)O)c4)c(=O)c2-3)cc1 [Example 9]
